Measured values as given in patent US20200316038A1, “METHODS AND COMPOSITIONS FOR TREATING UREA CYCLE DISORDERS, IN PARTICULAR OTC DEFICIENCY” (CAMP4 THERAPEUTICS CORPORATION, priority 2017, published 2020).
Where a name gives a salt, the structure may show the parent alone. Read-outs that look alike come from different tables or passages of the source.

Columns and labels:
OTC = OTC expression modulated by compounds (OTC/Geo Mean of HKs, DMSO = 1); format: cell-based, human; details: OTC expression
Description: Analysis of the fold changes in expression as measured by qRT-PCR were performed using the technique below. The control was DMSO, and the treatment was the selected compound (CPD). The internal control was GAPDH or B-Actin, and the gene of interest is the target. First, the averages of the 4 conditions were calculated for normalization: DMSO:GAPDH, DMSO:Target, CPD: GAPDH, and CPD:Target. Next, the ΔCT of both control and treatment were calculated to normalize to internal control (GAPDH) using (DMSO:Target)−(DMSO:GAPDH)=ΔCT control and (CPD:Target)−(CPD: GAPDH)=ΔCT experimental. Then, the ΔΔCT was calculated by ΔCT experimental−ΔCT control.

[1] = system: multiple urea cycle-related genes; assay: RNA-seq, compounds that modulate multiple urea cycle-related genes; format: cell-based; details: primary human hepatocytes; for Up-regulated Genes: urea cycle-related genes significantly increased by the compound
ARG1 = assay: RNA-seq, ARG1 expression in compound-treated primary human hepatocytes; format: cell-based; details: RNA-seq, primary human hepatocytes, compounds that significantly increase ARG1 expression
CPS1 = assay: RNA-seq, CPS1 expression in compound-treated primary human hepatocytes; format: cell-based
[2] = compound at 10 uM final concentration
[3] = RNA-seq, primary human hepatocytes, compounds that significantly increase NAGS expression

| Molecule | Max Value (OTC/Geo Mean of HKs; DMSO = 1) (OTC; [2]) | other results |
| --- | --- | --- |
| CCS(=O)(=O)N1CC(CC#N)(n2cc(-c3ncnc4[nH]ccc34)cn2)C1 [Baricitinib] | 1.66 |  |
| O=C(Nc1nc2cccc(-c3ccc(CN4CCS(=O)(=O)CC4)cc3)n2n1)C1CC1 [GLPG0634] | 1.54 |  |
| c1cc(-c2cnn3cc(-c4ccc(OCCN5CCCCC5)cc4)cnc23)ccn1 [Dorsomorphin] | 4.78 |  |
| O=C(NCCCNc1nc(Nc2cccc(CN3CCOCC3)c2)ncc1C1CC1)C1CCC1 [MRT67307] | 1.68 |  |
| O=C(NCCCNc1nc(Nc2cccc(NC(=O)N3CCCC3)c2)ncc1I)c1cccs1 [BX795] | 2.57 |  |
| Cc1cc(C)c(/C=C2\C(=O)Nc3ccccc32)[nH]1 [Semaxanib] |  | NAGS expression, Fold change (Log 2) vs untreated (NAGS; [3]): 2 Log 2 |
| CC(C)c1cc(CNc2nc(Nc3cc(C4CC4)[nH]n3)cc(N3CCN(C)CC3)n2)on1 [XL228] | 2.92 |  |
| Cc1ccc(F)c(NC(=O)Nc2ccc(-c3cccc4[nH]nc(N)c34)cc2)c1 [Linifanib (ABT-869), Linifanib] | 2.87 |  |
| Cc1cc(Nc2nc(N[C@@H](C)c3ncc(F)cn3)ncc2Cl)[nH]n1 [AZD1480] | 1.46 |  |
| C=CCNc1c(O)cc2c(O)c1C[C@@H](C)C[C@H](OC)[C@H](O)[C@@H](C)/C=C(\C)[C@H](OC(N)=O)[C@@H](OC)/C=C\C=C(/C)C(=O)N2 [Retaspimycin Hydrochloride] |  | Max Value (OTC/Geo Mean of HKs; DMSO = 1) (OTC; compound tested at 1 uM): 1.48 |
| C=CCNC1=C2C[C@@H](C)C[C@H](OC)[C@H](O)[C@@H](C)/C=C(\C)[C@H](OC(N)=O)[C@@H](OC)/C=C\C=C(/C)C(=O)NC(=CC1=O)C2=O [17-AAG (Tanespimycin), Tanespimycin] | 1.69 |  |
| COCCn1c2c([n+](Cc3cnccn3)c1C)C(=O)c1ccccc1C2=O [YM155 (Sepantronium Bromide), Sepantronium Bromide] | 3.16 |  |
| CCS(=O)(=O)c1cccc(-c2cc(C(=O)NC3CCN(C)CC3)c(C)c3[nH]c4ncc(C)cc4c23)c1 [TAK-901] | 2.9 |  |
| COc1cc2c(cc1OC)CN(C(=O)/C=C/c1c(-c3ccccc3)n(C)c3ncccc13)CC2 [SIS3] | 1.46 | NAGS expression, Fold change (Log 2) vs untreated (NAGS): 0.64 Log 2 |
| CC(C)[C@H](O)C(=O)N[C@@H](C)C(=O)N[C@@H]1C(=O)N(C)CCc2ccccc21 [Semagacestat] | 1.5 |  |
| CCN(CC)CCNC(=O)c1c(C)[nH]c(/C=C2\C(=O)Nc3ccc(F)cc32)c1C [Sunitinib] | 2.62 |  |
| CN(c1ncccc1CNc1nc(Nc2ccc3c(c2)CC(=O)N3)ncc1C(F)(F)F)S(C)(=O)=O [PF-00562271] | 3.3 |  |
| N#CC(c1ccnc(OCc2ccc(CN3CCOCC3)cc2)n1)c1nc2ccccc2s1 (stereo not shown) [AS602801 (Bentamapimod), Bentamapimod] | 2.75 |  |
| CC1(C)CC(=O)c2c(C(F)(F)F)nn(-c3ccc(C(N)=O)c(N[C@H]4CC[C@H](OC(=O)CN)CC4)c3)c2C1 [PF-04929113 (SNX-5422)] | 1.73 |  |
| C[C@@H]1CCN(C(=O)CC#N)C[C@@H]1N(C)c1ncnc2[nH]ccc12 [Tofacitinib citrate] | 1.6 |  |
| COc1cc(Nc2ncc(F)c(Nc3ccc4c(n3)N(COP(=O)(O)O)C(=O)C(C)(C)O4)n2)cc(OC)c1OC [R788 (fostamatinib disodium hexahydrate), fostamatinib disodium hexahydrate] |  | number of urea cycle genes whose expression was significantly up-regulated [1]: three; Up-regulated Genes [1]: CPS1, ARG1, SLC25A15 |
| CS[C@H]1SC[C@H]2C(=O)N(C)[C@@H](C(C)C)C(=O)OC[C@@H](NC(=O)c3cnc4ccccc4n3)C(=O)N[C@@H](C)C(=O)N(C)[C@@H]1C(=O)N(C)[C@@H](C(C)C)C(=O)OC[C@@H](NC(=O)c1cnc3ccccc3n1)C(=O)N[C@@H](C)C(=O)N2C [Echinomycin] |  | number of urea cycle genes whose expression was significantly up-regulated [1]: six |
| CCn1c(=O)c(-c2ccc(-c3cncs3)cc2Cl)cc2cnc(Nc3ccc(N4CCN(C)CC4)cc3)nc21 [FRAX597] |  | number of urea cycle genes whose expression was significantly up-regulated [1]: five |
| COc1cc2nccc(Oc3ccc(NC(=O)Nc4cc(C)on4)c(Cl)c3)c2cc1OC [Tivozanib] | 1.57 |  |

| Molecule | Max Value (OTC/Geo Mean of HKs; DMSO = 1) (OTC; [2]) | other results |
| --- | --- | --- |
| Cc1ccc(-n2nc(C(C)(C)C)cc2NC(=O)Nc2ccc(OCCN3CCOCC3)c3ccccc23)cc1 [BIRB 796, Doramapimod] | 2.61 |  |
| Cn1c(=O)c(Oc2ccc(F)cc2F)cc2cnc(NC(CCO)CCO)nc21 [Pamapimod] | 1.73 |  |
| CNC(=O)c1ccc(C)c(-n2c(C)cc(OCc3ccc(F)cc3F)c(Br)c2=O)c1 [PH-797804] | 1.53 |  |
| CNC(=O)c1cc(Oc2ccc(NC(=O)Nc3ccc(Cl)c(C(F)(F)F)c3)c(F)c2)ccn1 [Regorafenib] | 1.54 | Max Value (OTC/Geo Mean of HKs; DMSO = 1) (OTC; compound at 10 uM final concentration, listed as Regorafenib (BAY 73-4506)): 2.07 |
| N#CCNC(=O)c1ccc(-c2ccnc(Nc3ccc(N4CCOCC4)cc3)n2)cc1 [Momelotinib] | 3.52 | number of urea cycle genes whose expression was significantly up-regulated [1]: three; Up-regulated Genes [1]: CPS1, OTC, ARG1 |
| [H]/N=C(/N)N/C(=N/[H])NCCc1ccccc1 [Phenformin] |  | NAGS expression, Fold change (Log 2) vs untreated (NAGS): 1.38 Log 2; ARG1 expression, Fold change (Log 2) vs untreated (ARG1): 1.14 Log 2 |
| CCCC(=O)O[C@@H]1[C@@H](C)[C@@]2(O)[C@@H](C=C(CO)C[C@]3(O)C(=O)C(C)=C[C@@H]23)[C@@H]2C(C)(C)[C@]12OC(=O)CCC [Phorbol 12,13-dibutyrate] |  | NAGS expression, Fold change (Log 2) vs untreated (NAGS; [3]): 0.62 Log 2 |
| C1=C/COCc2cc(ccc2OCCN2CCCC2)Nc2nccc(n2)-c2cccc(c2)COC/1 [Pacritinib (SB1518), Pacritinib] |  | number of urea cycle genes whose expression was significantly up-regulated [1]: five; Up-regulated Genes [1]: CPS1, ASS1, ASL, OTC, ARG1 |
| C=CC(=O)Nc1cccc(Nc2nc(Nc3ccc(N4CCN(C(C)=O)CC4)cc3OC)ncc2C(F)(F)F)c1 [CO-1686 (Rociletinib), Rociletinib] |  | Fold change (Log 2) vs untreated (CPS1): 0.89 Log 2; NAGS expression, Fold change (Log 2) vs untreated (NAGS): 1.05 Log 2 |
| Cc1ccc(Nc2nccc(N(C)c3ccc4c(C)n(C)nc4c3)n2)cc1S(N)(=O)=O [Pazopanib] | 1.48 |  |
| Cl.Cn1c(=O)c(Oc2ccc(F)cc2F)cc2cnc(NC3CCOCC3)nc21 [R1487 Hydrochloride] | 1.64 |  |
| N[C@@]1(C(=O)O)CS(=O)(=O)[C@H]2[C@H](C(=O)O)[C@H]21 [Pomaglumetad] | 1.49 |  |
| CC1(C)CC[C@]2(C(=O)O)CC[C@]3(C)[C@H](C(=O)C=C4[C@@]5(C)C=C(C#N)C(=O)C(C)(C)[C@@H]5CC[C@]43C)[C@@H]2C1 [Bardoxolone] | 2.76 |  |
| CC1(COc2ccc3c(c2)ncn3-c2ccc3cccc(N4CCC(N)CC4)c3n2)COC1 [Crenolanib] | 2.79 | number of urea cycle genes whose expression was significantly up-regulated [1]: four; Up-regulated Genes [1]: ASS1, ASL, OTC, ARG1 |
| CN1CCN(CCCN2c3ccccc3Sc3ccc(C(F)(F)F)cc32)CC1 [TFP, Trifluoperazine] |  | NAGS expression, Fold change (Log 2) vs untreated (NAGS; [3]): 0.58 Log 2 |
| O=C(N[C@H]1CN2CCC1CC2)c1cc2cccc(Cl)c2s1 [EVP-6124 (hydrochloride) (encenicline), encenicline] |  | NAGS expression, Fold change (Log 2) vs untreated (NAGS; [3]): 0.75 Log 2 |
| COc1cc2c(Oc3ccc(NC(=O)C4(C(=O)Nc5ccc(F)cc5)CC4)cc3F)ccnc2cc1OCCCN1CCOCC1 [Foretinib (GSK1363089), Foretinib] | 4.09 |  |
| C=C1/C(=C\C=C2/CCC[C@]3(C)[C@@H]([C@H](C)CCCC(C)(C)O)CC[C@@H]23)C[C@@H](O)C[C@@H]1O [Calcitriol] |  | NAGS expression, Fold change (Log 2) vs untreated (NAGS; [3]): 1.2 Log 2 |
| Cc1cc(Nc2cc(CN3CCOCC3)c3nc(C)c(Cc4ccc(Cl)cc4F)n3n2)n[nH]1 [LY2784544] | 2.78 |  |
| N#CC(C#N)=NNc1cccc(Cl)c1 [CCCP] | 4.06 |  |
| NS(=O)(=O)C#Cc1ccccc1 [Pifithrin-u] |  | ARG1 expression, Fold change (Log 2) vs untreated (ARG1): 1.87 Log 2 |
| O=C(NCCCn1ccnc1)c1cc(-c2ccco2)on1 [SKL2001] |  | NAGS expression, Fold change (Log 2) vs untreated (NAGS): 0.95 Log 2 |
| GDF10 (BMP3b): member of the BMP family and the TGF-B superfamily (protein, UniProt P55107 369-478, looked up) Growth/differentiation factor …: QWDEPRVCSRRYLKVDFADIGWNEWIISPKSFDAYYCAGACEFPMPKIVRPSNHATIQSIVRAVGIIPGIPEPCCVPDKMNSLGVLFLDENRNVVLKVYPNMSVDTCACR |  | Fold change (Log 2) vs untreated (CPS1): 1.66 Log 2; ARG1 expression, Fold change (Log 2) vs untreated (ARG1): 0.97 Log 2 |
